Data as given in patent US20210223230A1, “Neamine Compositions and Methods of Use Thereof” (President and Fellows of Harvard College, priority 2008, published 2021).

Tests used:
47S rRNA = assay: rRNA transcription in LNCaP cells by Northern blotting; type: cell-based, human; conditions: ANG 0.1 μg/ml, 26-2F 60 μg/ml, 2 h
Experimental: (§1) (a) ANG stimulates LNCaP cell proliferation in the absence of androgens. Cells were culture in phenol red-free and charcoal/dextran-stripped (steroid-free) FBS for 2 day and stimulated with DHT (10 nM), ANG (0.1 μg/ml), or a mixture of the two for the time indicated. (b) Dose dependence. ANG was added to the cells and cultured for 4 days. (c) Anti-ANG mAb 26-2F inhibits DHT-induced cell proliferation. LNCaP cells were stimulated with 10 nM DHT in the presence of 26-2F or a control non-immune IgG for 3 days. (d) ANG over-expression promotes LNCaP proliferation in vitro. The vector control (pCI-Neo) and ANG transfectants (pCI-ANG) were cultured in phenol red-free and steroid-free medium for the time indicated. (e) Xenograft growth in castrated SCID mice. A mixture of 70 μl cell suspension (1×10^6 cells) and 30 μl Matrigel was injected s.c. per mouse (8 per group). The mice were castrated or sham-operated at the same time. Tumors were inspected and measured twice a week and the animals were sacrificed after 8 weeks of observation. (f) Endogenous ANG of LNCaP cells is essential for androgen-induced rRNA transcription. LNCaP cells were cultured in phenol red-free and steroid-free medium and incubated with DHT (10 nM), ANG (0.1 μg/ml), anti-ANG mAb 26-2F (60 μg/ml) or a mixture of DHT and 26-2F for 2 h. […]

[1] = tested on: PC-3, PC-3M, and DU-145 cells; assay: Proliferation of androgen-independent prostate cancer cells; type: cell-based, human
PIN = assay: Injection of human ANG protein into the ventral prostate of MPAKT mice (cancer invasion); type: in vivo; conditions: 50 μg per mouse, 9 weeks-old MPAKT mice, sacrificed 2 weeks later
Experimental: Human ANG protein, 50 μg per mouse, was injected into the surgically exposed ventral prostate of 9 weeks-old MPAKT mice. The mice were sacrificed 2 weeks later and the prostates were processed for H&E staining. Cells invading outside of the basement membrane are indicated by arrows.

LNCaP cells = assay: LNCaP cell proliferation in phenol red-free and steroid-free medium; type: cell-based, human; conditions: ANG 0.1 μg/ml, DHT 10 nM
Experimental: as §1

AR = biological target: T1, AR (Homo sapiens, UniProt P10275, T878A); assay: Nuclear translocation of AR in LNCaP cells by immunofluorescence; type: cell-based; conditions: ANG 0.1 μg/ml, 2 h
T1 construct: in untreated LNCaP cells, AR was diffusely distributed throughout the cytoplasm; endogenous in cells; host or cells: LNCaP
T1 sequence (P10275 1-920 T878A): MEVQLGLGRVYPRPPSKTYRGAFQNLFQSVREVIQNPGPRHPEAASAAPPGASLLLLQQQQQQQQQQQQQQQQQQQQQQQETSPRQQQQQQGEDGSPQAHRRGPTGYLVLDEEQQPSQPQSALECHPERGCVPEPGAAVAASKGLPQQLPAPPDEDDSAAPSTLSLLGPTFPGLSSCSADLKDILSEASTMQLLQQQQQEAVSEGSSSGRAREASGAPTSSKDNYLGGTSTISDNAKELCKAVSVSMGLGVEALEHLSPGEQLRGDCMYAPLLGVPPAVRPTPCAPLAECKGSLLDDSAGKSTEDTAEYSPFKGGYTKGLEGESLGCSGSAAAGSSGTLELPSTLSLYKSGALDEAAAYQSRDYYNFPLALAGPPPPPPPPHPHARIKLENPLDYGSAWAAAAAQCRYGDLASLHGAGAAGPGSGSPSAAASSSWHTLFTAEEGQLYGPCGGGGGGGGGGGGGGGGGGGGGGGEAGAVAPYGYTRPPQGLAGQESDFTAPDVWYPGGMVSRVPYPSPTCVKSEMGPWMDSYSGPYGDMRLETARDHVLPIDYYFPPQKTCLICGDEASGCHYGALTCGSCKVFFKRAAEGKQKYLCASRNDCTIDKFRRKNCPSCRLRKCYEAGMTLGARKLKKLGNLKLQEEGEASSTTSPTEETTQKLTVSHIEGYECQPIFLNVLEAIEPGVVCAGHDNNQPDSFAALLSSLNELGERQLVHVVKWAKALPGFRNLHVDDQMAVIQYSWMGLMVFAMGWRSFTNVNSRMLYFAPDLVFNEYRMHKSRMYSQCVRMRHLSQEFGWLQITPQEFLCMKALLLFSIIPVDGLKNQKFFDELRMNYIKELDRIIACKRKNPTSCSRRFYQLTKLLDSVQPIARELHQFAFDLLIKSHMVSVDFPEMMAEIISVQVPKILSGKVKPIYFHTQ
Experimental: FIG. 19 is a four panel figure that depicts a series of photographs showing immunofluorescently labeled LNCaP cells, showing the effect of ANG on nuclear translocation of AR (panels a-d). LNCaP cells were cultured in charcoal/dextran-stripped FBS and phenol red-free medium for 2 days, and incubated with ANG (0.1 μg/ml), DHT (10 nM) or DHT (10 nM)+anti-ANG mAb 26-2F (30 μg/ml) for 2 h. The cells were fixed and stained for AR by immunofluorescence.

Substance: ANG: angiogenin, a 14 kDa angiogenic ribonuclease
- rRNA transcription in LNCaP cells (47S rRNA): stimulated
- effect of exogenously added ANG on cell proliferation [1]: no effect
- animals with micro invasions (PIN): 2 of the 4
- LNCaP cell proliferation in the absence of androgens (LNCaP cells): stimulates
- nuclear translocation of AR in the absence of androgen (AR): stimulated
